Source: the supplement of paper PMC10307832

Columns and labels:
Assay in all cases: relative viability (nuclei count vs DMSO), 5 days (fraction); higher = more cells survive
BMX-IN-1 + Bortezomib = compound: C=CC(=O)Nc1cc(-n2c(=O)ccc3cnc4ccc(-c5ccc(NS(C)(=O)=O)cc5)cc4c32)ccc1C [BMX-IN-1] + CC(C)C[C@H](NC(=O)[C@H](Cc1ccccc1)NC(=O)c1cnccn1)B(O)O [Bortezomib] (partner 0.002 µM)
Procedure, shortened: (§1)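 Lung cancer cell lines were seeded in 1536-well plates and dosed by pin tool the next day, with either a single drug or a fixed anchor-drug dose combined with five library-drug doses (not always all listed) spaced in √10 steps. Five days later, one step fixed the cells and stained their nuclei (final 0.05% Triton X-100, 1% formaldehyde, 1 ug/ml Hoechst), and nuclei were counted on 4× images. Relative viability is the nuclei count in treated wells divided by the count in vehicle wells, and each value is the median of duplicate plates.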

BMX-IN-1 + Lapatinib = compound: C=CC(=O)Nc1cc(-n2c(=O)ccc3cnc4ccc(-c5ccc(NS(C)(=O)=O)cc5)cc4c32)ccc1C [BMX-IN-1] + CS(=O)(=O)CCNCc1ccc(-c2ccc3ncnc(Nc4ccc(OCc5cccc(F)c5)c(Cl)c4)c3c2)o1 [Lapatinib] (partner 2 µM)
Procedure, shortened: as §1

PAC-1 = compound: C=CCc1cccc(/C=N/NC(=O)CN2CCN(Cc3ccccc3)CC2)c1O [PAC-1]
Procedure, shortened: (§2)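 Lung cancer cell lines were seeded into 1536-well plates, kept overnight at 37 °C and pinned with five library-drug doses (not always all listed) spaced by √10. After 5 days, nuclei were Hoechst-stained, imaged at 4× and counted with MetaXpress. Viability is treated-well nuclei over vehicle-well nuclei, taken as a median across plates. Plates needed control CV below 25% and at least one doubling.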

BMX-IN-1 = compound: C=CC(=O)Nc1cc(-n2c(=O)ccc3cnc4ccc(-c5ccc(NS(C)(=O)=O)cc5)cc4c32)ccc1C [BMX-IN-1]
Procedure, shortened: as §2

Row | Cell Line | relative viability (BMX-IN-1 + Bortezomib; first compound 0.02 µM) | relative viability (BMX-IN-1 + Bortezomib; first compound 0.2 µM) | relative viability (BMX-IN-1 + Bortezomib; first compound 0.6325 µM) | relative viability (BMX-IN-1 + Bortezomib; first compound 2 µM) | relative viability (BMX-IN-1 + Lapatinib; first compound 0.02 µM) | relative viability (BMX-IN-1 + Lapatinib; first compound 0.2 µM) | relative viability (BMX-IN-1 + Lapatinib; first compound 0.6325 µM) | relative viability (BMX-IN-1 + Lapatinib; first compound 2 µM) | relative viability (PAC-1; 0.02 µM) | relative viability (PAC-1; 0.06325 µM) | relative viability (PAC-1; 0.2 µM) | relative viability (PAC-1; 2 µM) | relative viability (BMX-IN-1; 0.02 µM) | relative viability (BMX-IN-1; 0.2 µM) | relative viability (BMX-IN-1; 0.6325 µM) | relative viability (BMX-IN-1; 2 µM)
1 | NCI-H596 | 0.9 | 1.28 | 1.31 | 0.988 | 0.987 | 1.13 | 1.12 | 0.935 | 1 | 0.937 | 1.07 | 1.05 | 1.12 | 0.951 | 1.02 | 0.96
2 | NCI-H647 | 1.15 | 1.42 | 1.24 | 1.01 | 1.3 | 0.957 | 1.43 | 0.949 | 0.985 | 0.995 | 0.892 | 0.933 | 1.32 | 1.07 | 0.957 | 0.96
3 | NCI-H650 | 1.06 | 0.762 | 0.783 | 0.749 | 0.862 | 1.11 | 0.982 | 0.858 | 0.976 | 0.966 | 0.891 | 0.872 | 0.905 | 1.01 | 1.02 | 0.951
4 | NCI-H661 | 0.86 | 0.785 | 0.841 | 0.685 | 0.564 | 0.458 | 0.452 | 0.517 | 0.977 | 0.981 | 0.965 | 0.959 | 0.967 | 1.03 | 1.01 | 0.933
5 | NCI-H727 | 1 | 0.869 | 1.05 | 0.939 | 0.841 | 1.01 | 0.887 | 0.939 | 0.968 | 1.15 | 0.944 | 0.916 | 1 | 1.14 | 0.964 | 0.94
6 | NCI-H838 | 0.724 | 0.803 | 0.95 | 0.777 | 1.3 | 1.16 | 1.2 | 1.04 | 0.96 | 0.989 | 0.9 | 0.983 | 1.25 | 0.957 | 1.02 | 0.989
7 | NCI-H1299 | 0.968 | 1.08 | 1.13 | 0.97 | 1 | 0.986 | 1.06 | 0.962 | 1.03 | 0.979 | 1 | 1.01 | 1.09 | 1.08 | 1.07 | 1.06
8 | NCI-H1355 | 1.26 | 1.21 | 1.4 | 1.22 | 1.14 | 1.09 | 1.08 | 0.982 | 0.983 | 1.02 | 0.968 | 1.06 | 1.03 | 1.06 | 1.11 | 1.12
9 | NCI-H1437 | 0.567 | 0.472 | 0.586 | 0.456 | 0.928 | 0.867 | 0.907 | 0.915 | 0.988 | 1.01 | 0.96 | 0.814 | 1.11 | 0.984 | 1.03 | 1.03
10 | NCI-H1563 | 0.896 | 0.925 | 0.891 | 0.79 | 0.837 | 0.86 | 0.903 | 0.824 | 0.953 | 1.03 | 1.04 | 0.94 | 0.955 | 0.943 | 1.04 | 0.964
11 | NCI-H1650 | 0.178 | 0.203 | 0.201 | 0.186 | 0.666 | 0.941 | 0.88 | 0.77 | 0.916 | 0.916 | 0.856 | 0.81 | 1 | 0.896 | 1.01 | 0.772
12 | NCI-H1651 | 0.959 | 1.06 | 0.921 | 0.951 | 1 | 0.967 | 1.17 | 0.834 | 0.978 | 0.967 | 0.943 | 0.983 | 1.11 | 1.08 | 1.07 | 0.991
13 | NCI-H1666 | 0.799 | 0.821 | 0.823 | 0.728 | 0.772 | 0.626 | 0.663 | 0.444 | 1.01 | 1.01 | 1 | 1.04 | 1.05 | 1.06 | 1.11 | 1.1
14 | NCI-H1703 | 0.257 | 0.329 | 0.337 | 0.242 | 1.69 | 1.24 | 1.31 | 0.677 | 0.993 | 0.903 | 0.955 | 0.962 | 1.1 | 0.914 | 0.862 | 0.805
15 | NCI-H1734 | 1.05 | 1.24 | 0.964 | 1.17 | 1.21 | 1.66 | 1.1 | 1.05 | 0.936 | 1.01 | 0.942 | 1.02 | 1.06 | 1.06 | 1.11 | 1.02
16 | NCI-H1755 | 0.971 | 1 | 1 | 0.987 | 1.2 | 1.02 | 1.09 | 1.02 | 1.02 | 0.958 | 0.963 | 0.995 | 1.01 | 1.1 | 1.08 | 0.984
17 | NCI-H1792 | 1.25 | 1.4 | 0.912 | 0.956 | 0.834 | 1.04 | 0.937 | 0.922 | 0.951 | 0.991 | 0.996 | 0.95 | 1.03 | 1.2 | 1.5 | 0.991
18 | NCI-H1915 | 1.31 | 1.14 | 1.08 | 0.994 | 1.16 | 1.05 | 1.13 | 0.968 | 0.955 | 0.981 | 0.934 | 1.07 | 1.08 | 1.06 | 1.07 | 1.08

Row | Cell Line | relative viability (BMX-IN-1 + Bortezomib; first compound 0.02 µM) | relative viability (BMX-IN-1 + Bortezomib; first compound 0.2 µM) | relative viability (BMX-IN-1 + Bortezomib; first compound 0.6325 µM) | relative viability (BMX-IN-1 + Bortezomib; first compound 2 µM) | relative viability (BMX-IN-1 + Lapatinib; first compound 0.02 µM) | relative viability (BMX-IN-1 + Lapatinib; first compound 0.2 µM) | relative viability (BMX-IN-1 + Lapatinib; first compound 0.6325 µM) | relative viability (BMX-IN-1 + Lapatinib; first compound 2 µM) | relative viability (PAC-1; 0.02 µM) | relative viability (PAC-1; 0.06325 µM) | relative viability (PAC-1; 0.2 µM) | relative viability (PAC-1; 2 µM) | relative viability (BMX-IN-1; 0.02 µM) | relative viability (BMX-IN-1; 0.2 µM) | relative viability (BMX-IN-1; 0.6325 µM) | relative viability (BMX-IN-1; 2 µM)
19 | NCI-H1975 | 0.356 | 0.338 | 0.45 | 0.433 | 1.27 | 0.869 | 1.23 | 0.929 | 0.97 | 0.957 | 0.994 | 1.08 | 1.17 | 0.965 | 1.14 | 0.872
20 | NCI-H1993 | 1.1 | 1.11 |  | 0.959 | 0.68 | 0.754 |  | 0.815 | 0.911 | 0.986 | 0.891 | 0.963 | 1.01 | 1.09 | 0.973 | 0.882
21 | NCI-H2009 | 1.07 | 1.19 | 1.16 | 1.01 | 0.661 | 1.04 | 1.1 | 0.893 | 0.978 | 1.03 | 0.94 | 0.99 | 1.08 | 1.07 | 1.09 | 1.02
22 | NCI-H2023 | 1.21 | 1.19 | 1.27 | 1.08 | 1.19 | 0.954 | 1.19 | 0.855 | 0.973 | 0.919 | 0.905 | 1.01 | 1.37 | 1.19 | 1.13 | 1.08
23 | NCI-H2085 | 1.14 | 0.998 | 1.2 | 1.16 | 0.831 | 0.821 | 0.764 | 0.763 | 1.05 | 1.02 | 0.989 | 0.98 | 1.03 | 0.997 | 1 | 1.01
24 | NCI-H2087 | 1.09 | 0.959 | 1.07 | 0.814 | 1.02 | 1.29 | 1.36 | 1.06 | 0.872 | 1.06 | 0.929 | 1.04 | 1.03 | 1.14 | 1.14 | 1.15
25 | NCI-H2126 | 1.13 | 1.17 | 1.19 | 1.19 | 0.899 | 0.768 | 0.827 | 0.784 | 0.938 | 0.948 | 1.02 | 1.06 | 1.09 | 1.05 | 1.08 | 1.02
26 | NCI-H2228 | 1.66 | 1.03 | 1.47 | 1.12 | 1.89 | 1.09 | 1.52 | 0.929 | 0.98 | 1.15 | 0.924 | 1.09 | 1.2 | 1.18 | 0.975 | 1.05
27 | NCI-H2347 | 0.985 | 1.24 | 1.14 | 1 | 1.01 | 1.06 | 0.991 | 0.944 | 1.01 | 1.02 | 0.979 | 1.05 | 1.04 | 0.967 | 1.14 | 1.09
28 | NCI-H2405 | 0.989 | 1.1 | 0.999 | 1.01 | 1.15 | 1.04 | 1.09 | 1.05 | 1.04 | 1 | 1.01 | 1.09 | 0.982 | 1.01 | 1.09 | 1.04
29 | NCI-H3122 | 1.04 | 0.974 | 1.05 | 0.994 | 1.1 | 1.08 | 0.988 | 1.05 | 0.991 | 0.989 | 0.965 | 0.965 | 1.07 | 1.06 | 1.04 | 1.04
30 | PC-3 [JPC-3] | 0.913 | 0.955 | 0.944 | 0.824 | 0.533 | 0.466 | 0.47 | 0.476 | 1.06 | 1.08 | 1.05 | 1.03 | 1.08 | 1.12 | 1.11 | 1.06
31 | PC-14 | 0.934 | 0.953 | 1.01 | 0.954 | 0.356 | 0.321 | 0.338 | 0.258 | 1.03 | 1.03 | 0.995 | 0.988 | 1.12 | 1.06 | 1.22 | 1
32 | RERF-LC-KJ | 1.17 | 1.21 | 1.09 | 1.05 | 0.876 | 0.944 | 0.963 | 0.918 | 1.08 | 1 | 0.947 | 0.942 | 1.14 | 1.04 | 1.03 | 1.03
33 | SK-LU-1 | 1.52 | 1.47 | 1.22 | 1.07 | 1.3 | 0.779 | 0.938 | 0.771 | 1 | 1.02 | 0.975 | 0.999 | 1.22 | 1.23 | 1.16 | 1.1
34 | SW 1573 | 1.38 | 1.06 | 1.08 | 0.996 | 1.31 | 1.29 | 1.24 | 0.701 | 0.965 | 1.03 | 1.01 | 1.15 | 1.13 | 1.08 | 1.09 | 0.904
35 | UMC-11 | 0.929 | 0.625 | 1.19 | 0.791 | 1.1 | 1.1 | 1.28 | 1.1 | 1 | 0.969 | 1 | 1.01 | 1.11 | 1.1 | 1.09 | 1.03
